Experimental data published in ChEMBL document CHEMBL4152384, “Pyrtriazoles, a Novel Class of Store-Operated Calcium Entry Modulators: Discovery, Biological Profiling, and in Vivo Proof-of-Concept Efficacy in Acute Pancreatitis” (J Med Chem, 2018).

molecular target: Stromal interaction molecule 1 & 2/Calcium release-activated calcium channel protein 1 (Mus musculus) (UniProt Q8BWG9+P70302+P83093); assay: (§1) Modulation of STIM1/STIM2/Orai1 in mouse BV2 cells assessed as induction of store-operated calcium entry by measuring residual activity at 10 uM preincubated for 30 mins followed by tBhQ-mediated Ca2+ depletion and Ca2+ re-addition to extracellular solution measured for 600 secs by Fluo-4 AM-based fluorometric assay relative to control; format: cell-based

| SMILES | Activity [%] |
| --- | --- |
| CCOC(=O)c1cnn(-c2ccc(-c3cn(-c4cccc(OC)c4)nn3)cc2)c1C(F)(F)F | 117 |
| CCOC(=O)c1cnn(-c2ccc(-n3cc(-c4ccc(NC(C)=O)cc4)nn3)cc2)c1C(F)(F)F | 106 |
| CCOC(=O)c1cnn(-c2ccc(-c3cn(-c4cc(OC)cc(OC)c4)nn3)cc2)c1C(F)(F)F | 113 |
| CCOC(=O)c1cnn(-c2ccc(-n3cc(-c4cccnc4)nn3)cc2)c1C(F)(F)F | 91.6 |
| CCOC(=O)c1cnn(-c2ccc(-n3cc(-c4cccc(OC)c4)nn3)cc2)c1C(F)(F)F | 105 |
| CCOC(=O)c1cnn(-c2ccc(-n3cc(CCCC(=O)O)nn3)cc2)c1C(F)(F)F | 72.2 |
| CCOC(=O)c1cnn(-c2ccc(-n3cc(-c4cccc(O)c4)nn3)cc2)c1C(F)(F)F | 96.5 |
| CCOC(=O)c1cnn(-c2ccc(-n3cc(-c4ccccc4)nn3)cc2)c1C(F)(F)F | 86.1 |
| CCOC(=O)c1cnn(-c2ccc(-n3cc(-c4cc(OC)cc(OC)c4)nn3)cc2)c1C(F)(F)F | 99.4 |
| CCOC(=O)c1cnn(-c2ccc(-n3cc(-c4ccc(N)cc4)nn3)cc2)c1C(F)(F)F | 91.7 |
| CCOC(=O)c1cnn(-c2ccc(-c3cn(-c4ccc(Oc5ccccc5)cc4)nn3)cc2)c1C(F)(F)F | 101 |
| CCOC(=O)c1cnn(-c2ccc(-n3cc(-c4ccc(Oc5ccccc5)cc4)nn3)cc2)c1C(F)(F)F | 83.8 |
| CCOC(=O)c1cnn(-c2ccc(-n3cc(-c4ccncc4)nn3)cc2)c1C(F)(F)F | 68.1 |
| CCOC(=O)c1cnn(-c2ccc(-c3cn(-c4ccc(OC)c(OC)c4)nn3)cc2)c1C(F)(F)F | 113 |
| CCOC(=O)c1cnn(-c2ccc(-n3cc(-c4ccc(OC)c(OC)c4)nn3)cc2)c1C(F)(F)F | 82.8 |
| CCOC(=O)c1cnn(-c2ccc(-c3cn(-c4ccc(NC(C)=O)cc4)nn3)cc2)c1C(F)(F)F | 108 |
| CCOC(=O)c1cnn(-c2ccc(-n3cc(-c4ccccc4NC(C)=O)nn3)cc2)c1C(F)(F)F | 72 |
| CCOC(=O)c1cnn(-c2ccc(-c3cn(-c4ccc(N)cc4)nn3)cc2)c1C(F)(F)F | 93.2 |
| CCOC(=O)c1cnn(-c2ccc(-c3cn(-c4cccc(NC(C)=O)c4)nn3)cc2)c1C(F)(F)F | 117 |
| CCOC(=O)c1cnn(-c2ccc(-c3cn(-c4ccccn4)nn3)cc2)c1C(F)(F)F | 77 |
| CCOC(=O)c1cnn(-c2ccc(-n3cc(-c4cccc(NC(C)=O)c4)nn3)cc2)c1C(F)(F)F | 75.3 |
| CCOC(=O)c1cnn(-c2ccc(-c3cn(-c4ccccc4)nn3)cc2)c1C(F)(F)F | 97.5 |
| CCOC(=O)c1cnn(-c2ccc(-c3cn(-c4cccnc4)nn3)cc2)c1C(F)(F)F | 62.6 |
| CCOC(=O)c1cnn(-c2ccc(-n3cc(-c4ccccn4)nn3)cc2)c1C(F)(F)F | 81 |
| CCOC(=O)c1cnn(-c2ccc(-c3cn(-c4ccc(OC)cc4)nn3)cc2)c1C(F)(F)F | 83.1 |
| CCOC(=O)c1cnn(-c2ccc(-n3cc(-c4ccc(Cl)cc4)nn3)cc2)c1C(F)(F)F | 88.6 |
| CCOC(=O)c1cnn(-c2ccc(-c3cn(-c4ccncc4)nn3)cc2)c1C(F)(F)F | 79.8 |
| CCOC(=O)c1cnn(-c2ccc(-n3cc(-c4ccc(OC)cc4)nn3)cc2)c1C(F)(F)F | 95.6 |
| CCOC(=O)c1cnn(-c2ccc(-n3cc(-c4ccncc4F)nn3)cc2)c1C(F)(F)F | 107 |

Next, values leading:

| Activity [%] | SMILES |
| --- | --- |
| 88.8 | FC(F)(F)c1cc(C(F)(F)F)n(-c2ccc(-c3cn(-c4ccccn4)nn3)cc2)n1 |
| 105 | COc1cccc(-c2cn(-c3ccc(-n4nc(C(F)(F)F)cc4C(F)(F)F)cc3)nn2)c1 |
| 109 | COc1ccc(-c2cn(-c3ccc(-n4nc(C(F)(F)F)cc4C(F)(F)F)cc3)nn2)cc1OC |
| 106 | Fc1cnccc1-n1cc(-c2ccc(-n3nc(C(F)(F)F)cc3C(F)(F)F)cc2)nn1 |
| 98.1 | Nc1ccc(-c2cn(-c3ccc(-n4nc(C(F)(F)F)cc4C(F)(F)F)cc3)nn2)cc1 |
| 98.5 | CC(=O)Nc1ccc(-c2cn(-c3ccc(-n4nc(C(F)(F)F)cc4C(F)(F)F)cc3)nn2)cc1 |
| 98.8 | CC(=O)Nc1ccc(-n2cc(-c3ccc(-n4nc(C(F)(F)F)cc4C(F)(F)F)cc3)nn2)cc1 |
| 81.7 | O=C(O)CCCn1cc(-c2ccc(-n3nc(C(F)(F)F)cc3C(F)(F)F)cc2)nn1 |
| 73.5 | FC(F)(F)c1cc(C(F)(F)F)n(-c2ccc(-n3cc(-c4ccc(Oc5ccccc5)cc4)nn3)cc2)n1 |
| 80.2 | O=C(O)c1cccc(-n2cc(-c3ccc(-n4nc(C(F)(F)F)cc4C(F)(F)F)cc3)nn2)c1 |
| 90.2 | FC(F)(F)c1cc(C(F)(F)F)n(-c2ccc(-c3cn(-c4ccc(Oc5ccccc5)cc4)nn3)cc2)n1 |
| 99.2 | FC(F)(F)c1cc(C(F)(F)F)n(-c2ccc(-n3cc(-c4ccccc4)nn3)cc2)n1 |
| 90.2 | Nc1ccc(-n2cc(-c3ccc(-n4nc(C(F)(F)F)cc4C(F)(F)F)cc3)nn2)cc1 |
| 113 | COc1cccc(-n2cc(-c3ccc(-n4nc(C(F)(F)F)cc4C(F)(F)F)cc3)nn2)c1 |
| 99.6 | COc1ccc(-c2cn(-c3ccc(-n4nc(C(F)(F)F)cc4C(F)(F)F)cc3)nn2)cc1 |
| 114 | FC(F)(F)c1cc(C(F)(F)F)n(-c2ccc(-n3cc(-c4ccccn4)nn3)cc2)n1 |
| 85.6 | Nc1cccc(-n2cc(-c3ccc(-n4nc(C(F)(F)F)cc4C(F)(F)F)cc3)nn2)c1 |
| 93.7 | COc1cc(OC)cc(-n2cc(-c3ccc(-n4nc(C(F)(F)F)cc4C(F)(F)F)cc3)nn2)c1 |
| 84 | FC(F)(F)c1cc(C(F)(F)F)n(-c2ccc(-c3cn(-c4ccncc4)nn3)cc2)n1 |

| Activity [%] | SMILES |
| --- | --- |
| 90.2 | Fc1cnccc1-c1cn(-c2ccc(-n3nc(C(F)(F)F)cc3C(F)(F)F)cc2)nn1 |
| 78.7 | COc1ccc(-n2cc(-c3ccc(-n4nc(C(F)(F)F)cc4C(F)(F)F)cc3)nn2)cc1 |
| 94.7 | FC(F)(F)c1cc(C(F)(F)F)n(-c2ccc(-n3cc(-c4ccncc4)nn3)cc2)n1 |
| 94.3 | COc1ccc(-n2cc(-c3ccc(-n4nc(C(F)(F)F)cc4C(F)(F)F)cc3)nn2)cc1OC |
| 101 | CC(=O)Nc1cccc(-n2cc(-c3ccc(-n4nc(C(F)(F)F)cc4C(F)(F)F)cc3)nn2)c1 |
| 105 | Oc1cccc(-n2cc(-c3ccc(-n4nc(C(F)(F)F)cc4C(F)(F)F)cc3)nn2)c1 |
| 75.2 | COc1cc(OC)cc(-c2cn(-c3ccc(-n4nc(C(F)(F)F)cc4C(F)(F)F)cc3)nn2)c1 |
| 80.5 | COc1cc(-c2cn(-c3ccc(-n4nc(C(F)(F)F)cc4C(F)(F)F)cc3)nn2)ccc1O |
| 93.2 | CC(=O)Nc1ccccc1-c1cn(-c2ccc(-n3nc(C(F)(F)F)cc3C(F)(F)F)cc2)nn1 |
| 98.1 | CC(=O)Nc1cccc(-c2cn(-c3ccc(-n4nc(C(F)(F)F)cc4C(F)(F)F)cc3)nn2)c1 |
| 77 | FC(F)(F)c1cc(C(F)(F)F)n(-c2ccc(-c3cn(-c4cccnc4)nn3)cc2)n1 |
| 116 | FC(F)(F)c1cc(C(F)(F)F)n(-c2ccc(-c3cn(-c4ccc(Cl)cc4)nn3)cc2)n1 |
| 106 | CCOC(=O)c1cnn(-c2ccc(-c3cn(-c4cccc(O)c4)nn3)cc2)c1C(F)(F)F |
| 95.9 | Oc1cccc(-c2cn(-c3ccc(-n4nc(C(F)(F)F)cc4C(F)(F)F)cc3)nn2)c1 |
| 99.7 | FC(F)(F)c1cc(C(F)(F)F)n(-c2ccc(-c3cn(-c4ccccc4)nn3)cc2)n1 |
| 103 | Nc1cccc(-c2cn(-c3ccc(-n4nc(C(F)(F)F)cc4C(F)(F)F)cc3)nn2)c1 |
| 106 | FC(F)(F)c1cc(C(F)(F)F)n(-c2ccc(-n3cc(-c4ccc(Cl)cc4)nn3)cc2)n1 |
| 80.1 | O=C(O)CCCc1cn(-c2ccc(-n3nc(C(F)(F)F)cc3C(F)(F)F)cc2)nn1 |
| 87.8 | FC(F)(F)c1cc(C(F)(F)F)n(-c2ccc(-n3cc(-c4cccnc4)nn3)cc2)n1 |

molecular target: Short transient receptor potential channel 1 & 3/Stromal interaction molecule 1/Calcium release-activated calcium channel protein 1 (Homo sapiens) (UniProt Q96D31+Q13507+Q13586+P48995); assay: as §1, with “TRPC1/TRPC3/STIM1/Orai1” for “STIM1/STIM2/Orai1”, “HEK” for “mouse BV2”; format: cell-based
Sequence (P48995 whole entry partner): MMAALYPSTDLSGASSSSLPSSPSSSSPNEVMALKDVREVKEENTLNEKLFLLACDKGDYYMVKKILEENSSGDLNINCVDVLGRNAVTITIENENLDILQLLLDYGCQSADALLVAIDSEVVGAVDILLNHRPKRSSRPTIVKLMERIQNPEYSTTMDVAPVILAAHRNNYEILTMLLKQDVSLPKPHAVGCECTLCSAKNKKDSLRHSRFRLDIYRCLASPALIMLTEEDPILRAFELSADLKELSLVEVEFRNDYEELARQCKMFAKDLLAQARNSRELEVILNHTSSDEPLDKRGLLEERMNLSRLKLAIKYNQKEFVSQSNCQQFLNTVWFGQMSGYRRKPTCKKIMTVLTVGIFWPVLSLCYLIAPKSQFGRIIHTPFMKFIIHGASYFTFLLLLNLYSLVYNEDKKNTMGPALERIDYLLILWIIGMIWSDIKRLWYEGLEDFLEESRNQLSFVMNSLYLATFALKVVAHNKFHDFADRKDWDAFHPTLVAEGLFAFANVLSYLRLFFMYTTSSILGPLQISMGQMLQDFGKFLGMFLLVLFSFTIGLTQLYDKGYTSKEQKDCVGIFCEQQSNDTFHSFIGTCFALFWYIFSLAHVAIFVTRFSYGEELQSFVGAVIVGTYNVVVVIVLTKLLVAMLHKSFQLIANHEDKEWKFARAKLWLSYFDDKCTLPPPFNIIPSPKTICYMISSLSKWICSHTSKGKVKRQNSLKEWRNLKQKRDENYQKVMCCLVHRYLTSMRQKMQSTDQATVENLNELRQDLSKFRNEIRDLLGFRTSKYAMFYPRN
Sequence (Q13507 whole entry partner): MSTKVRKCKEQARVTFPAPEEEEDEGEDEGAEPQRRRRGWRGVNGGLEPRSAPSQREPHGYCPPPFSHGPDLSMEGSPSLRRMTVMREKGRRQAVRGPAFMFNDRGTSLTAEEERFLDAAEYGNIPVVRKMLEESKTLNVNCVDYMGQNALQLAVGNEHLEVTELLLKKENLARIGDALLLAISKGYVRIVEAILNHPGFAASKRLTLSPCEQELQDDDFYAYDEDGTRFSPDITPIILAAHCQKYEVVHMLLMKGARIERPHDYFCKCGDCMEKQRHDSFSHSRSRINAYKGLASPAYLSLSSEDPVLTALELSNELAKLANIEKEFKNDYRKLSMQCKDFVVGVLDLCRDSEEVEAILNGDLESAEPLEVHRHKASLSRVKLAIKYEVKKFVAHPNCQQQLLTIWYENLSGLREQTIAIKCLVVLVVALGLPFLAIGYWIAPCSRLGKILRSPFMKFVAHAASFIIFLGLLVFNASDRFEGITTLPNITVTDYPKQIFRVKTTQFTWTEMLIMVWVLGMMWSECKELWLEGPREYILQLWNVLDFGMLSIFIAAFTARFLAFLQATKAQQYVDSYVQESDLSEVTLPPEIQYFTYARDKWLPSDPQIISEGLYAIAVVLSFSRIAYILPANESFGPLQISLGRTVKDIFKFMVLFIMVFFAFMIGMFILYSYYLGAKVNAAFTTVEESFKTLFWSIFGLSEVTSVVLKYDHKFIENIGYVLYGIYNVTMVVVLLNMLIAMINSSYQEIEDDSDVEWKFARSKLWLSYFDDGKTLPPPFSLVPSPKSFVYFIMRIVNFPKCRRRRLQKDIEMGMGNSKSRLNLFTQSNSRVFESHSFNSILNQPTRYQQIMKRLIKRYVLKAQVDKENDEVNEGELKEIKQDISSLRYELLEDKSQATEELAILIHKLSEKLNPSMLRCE
Sequence (Q13586 23-685 partner limits assumed): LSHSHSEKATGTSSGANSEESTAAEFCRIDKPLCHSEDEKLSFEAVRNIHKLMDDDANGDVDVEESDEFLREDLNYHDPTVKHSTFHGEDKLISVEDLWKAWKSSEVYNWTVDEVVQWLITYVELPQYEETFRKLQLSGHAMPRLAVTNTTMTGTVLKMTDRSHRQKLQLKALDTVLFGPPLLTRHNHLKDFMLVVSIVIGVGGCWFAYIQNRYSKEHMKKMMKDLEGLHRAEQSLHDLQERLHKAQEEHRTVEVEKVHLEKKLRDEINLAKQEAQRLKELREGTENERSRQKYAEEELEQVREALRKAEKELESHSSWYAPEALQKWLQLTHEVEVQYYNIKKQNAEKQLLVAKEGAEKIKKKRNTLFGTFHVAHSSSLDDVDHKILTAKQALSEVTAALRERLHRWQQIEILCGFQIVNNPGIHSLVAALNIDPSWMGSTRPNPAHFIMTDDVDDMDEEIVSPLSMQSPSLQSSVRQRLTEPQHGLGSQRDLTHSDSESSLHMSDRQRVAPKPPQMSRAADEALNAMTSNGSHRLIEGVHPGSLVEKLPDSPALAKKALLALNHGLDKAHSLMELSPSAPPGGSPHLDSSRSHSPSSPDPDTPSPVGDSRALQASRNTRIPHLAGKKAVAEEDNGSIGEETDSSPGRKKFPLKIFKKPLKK
Sequence (Q96D31 whole entry): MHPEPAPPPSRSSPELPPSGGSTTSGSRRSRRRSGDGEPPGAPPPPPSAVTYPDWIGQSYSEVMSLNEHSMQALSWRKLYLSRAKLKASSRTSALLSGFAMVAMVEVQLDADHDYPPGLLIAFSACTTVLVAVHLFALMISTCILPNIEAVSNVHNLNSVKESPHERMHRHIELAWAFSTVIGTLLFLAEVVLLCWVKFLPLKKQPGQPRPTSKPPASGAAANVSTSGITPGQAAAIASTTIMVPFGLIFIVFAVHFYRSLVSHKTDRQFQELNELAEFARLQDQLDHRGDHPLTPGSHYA

| SMILES | Activity [%] |
| --- | --- |
| CCOC(=O)c1cnn(-c2ccc(-n3cc(-c4cccc(C(N)=O)c4)nn3)cc2)c1C(F)(F)F | 72.1 |
| CCOC(=O)c1cnn(-c2ccc(C(=O)Nc3cccc(C(=O)O)c3)cc2)c1C(F)(F)F | > 90 |
| CCOC(=O)c1cnn(-c2ccc(-n3cc(-c4cccc(S(N)(=O)=O)c4)nn3)cc2)c1C(F)(F)F | 83.6 |
| CCOC(=O)c1cnn(-c2ccc(-n3cc(-c4cccc(C(=O)OC)c4)nn3)cc2)c1C(F)(F)F | > 90 |
| CC(C)=CCC/C(C)=C/COC(=O)c1cnn(-c2ccc(-n3cc(-c4cccc(C(=O)O)c4)nn3)cc2)c1C(F)(F)F | > 90 |
| CCOC(=O)c1cnn(-c2ccc(-n3cc(-c4cccc(C(=O)NS(C)(=O)=O)c4)nn3)cc2)c1C(F)(F)F | > 90 |
| CC(C)CCOC(=O)c1cnn(-c2ccc(-n3cc(-c4cccc(C(=O)O)c4)nn3)cc2)c1C(F)(F)F | > 90 |
| O=C(O)c1cccc(-c2cn(-c3ccc(-n4ncc(C(=O)OCc5ccncc5)c4C(F)(F)F)cc3)nn2)c1 | > 90 |
| CCOC(=O)c1cnn(-c2ccc(-n3nncc3-c3cccc(C(=O)O)c3)cc2)c1C(F)(F)F | > 90 |
| O=C(O)c1cccc(-c2cn(-c3ccc(-n4ncc(C(=O)OCCN5CCOCC5)c4C(F)(F)F)cc3)nn2)c1 | > 90 |

More lines, now with the values ahead:

| Activity [%] | SMILES |
| --- | --- |
| > 90 | CCOC(=O)c1cnn(-c2ccc(-c3cn(-c4cccc(CO)c4)nn3)cc2)c1C(F)(F)F |
| > 90 | CC(C)NC(=O)c1cnn(-c2ccc(-n3cc(-c4cccc(C(=O)O)c4)nn3)cc2)c1C(F)(F)F |
| > 90 | O=C(O)c1cccc(-c2cn(-c3ccc(-n4ncc(C(=O)O)c4C(F)(F)F)cc3)nn2)c1 |
| > 90 | CCOC(=O)c1cnn(-c2ccc(-c3cn(-c4cccc(C(C)=O)c4)nn3)cc2)c1C(F)(F)F |
| > 90 | NC(=O)c1cnn(-c2ccc(-n3cc(-c4cccc(C(=O)O)c4)nn3)cc2)c1C(F)(F)F |
| > 90 | O=C(O)c1cccc(-c2cn(-c3ccc(-n4ncc(CO)c4C(F)(F)F)cc3)nn2)c1 |
